Assay results from US8658797B2, “Asymmetric ureas and medical uses thereof” (Helsinn Healthcare SA, priority 2011, dated 2014).

Legend:
GHSR-1a [1] = biological target: T1, GHSR-1a (Homo sapiens, UniProt Q92847); assay: Calcium FLIPR assay, GHSR-1a antagonism (reduction of ghrelin response); format: cell-based; details: HEK293/GHSR1a cell line; ghrelin 10 nM; read-out: IC50 FLIPR antagonist Activity
T1 construct: expressed in transfected cells; host or cells: HEK293
Description: (§1) The intracellular calcium assay was carried out in a 384-well format FLIPR™ (Molecular Device) HEK293/GHSR1a cell line. Cells were seeded 24 hr prior to the experiments at an optimal density per well. Preincubation with selected calcium dye lasted for 30-60 min at room temperature or 37° C. Test compounds, dissolved in DMSO, were added at the appropriate time and incubated for 15 min followed by the addition of ghrelin with FlexStation or FLIPR. Relative fluorescence was monitored by the FLIPR™ Molecular Device. EC50 and IC50 values were estimated from dose-response data using GraphPad Prism software. To check for GHSR-1a agonism the compound was added at t=20 sec. and the calcium response was followed for 2 minutes. To check for GHSR-1a antagonism the compound and Ghrelin (10 nM) were added to the cells at t=20 sec. and the calcium response was measured for 2 minutes. The potency of the antagonist was calculated by its ability to reduce the ghrelin response. Dose-response curves were made for relevant antagonists.

Male C57BL/6J mice = assay: Evaluation of GHSR1a antagonists on food intake test in mouse; format: in vivo; details: for Mouse Food Intake effect: NSE: not significant effect
Description: Male C57BL/6J mice, 18-22 g body weight, were fasted overnight (16 h before compound administration) and placed in a regular light dark cycle (6:00-18:00 light/18:00-6:00 dark). After 1 wk acclimation, animals were sorted into two groups (n=6 each, 2 per cage) based on body weight. Animals in group one were be treated with vehicle and animals in group 2 were treated with the test agent (n=6 for each group). The cumulative food intake was evaluated at 1, 2, 4, 8 and 24 hrs after drug or vehicle treatment. Food intake was measured by subtracting uneaten food from the initial premeasured food.

GHSR-1a [2] = biological target: T1, GHSR-1a; assay: Calcium FLIPR assay, GHSR-1a agonism; format: cell-based; details: HEK293/GHSR1a cell line; read-out: EC50 FLIPR against Activity (EC50 part of μM/Emax)
Description: as §1

[3] = Mus musculus, ip, 10 mg/kg i.p., at 1 hr
[4] = Mus musculus, ip, 30 mg/kg i.p., at 1 hr

T1 sequence (Q92847 whole entry): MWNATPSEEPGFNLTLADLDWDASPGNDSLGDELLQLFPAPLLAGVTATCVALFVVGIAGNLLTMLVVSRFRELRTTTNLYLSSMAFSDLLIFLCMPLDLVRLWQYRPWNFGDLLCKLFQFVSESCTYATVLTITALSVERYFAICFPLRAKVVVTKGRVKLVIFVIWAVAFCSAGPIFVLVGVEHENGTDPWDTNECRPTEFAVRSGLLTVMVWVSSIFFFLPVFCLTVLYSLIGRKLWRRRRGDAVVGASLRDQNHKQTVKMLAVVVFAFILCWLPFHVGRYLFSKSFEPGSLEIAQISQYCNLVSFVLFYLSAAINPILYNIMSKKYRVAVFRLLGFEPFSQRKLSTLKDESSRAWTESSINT

SMILES	IC50 (GHSR-1a [1])	EC50 (GHSR-1a [2])	inhibition in vivo at 10 mg/kg (Male C57BL/6J mice; [3])	Mouse Food Intake effect (Male C57BL/6J mice; 10 mg/kg i.p.)	also measured
CCN(C(=O)NC(CCc1cccc(OCc2cccnc2)c1)c1cccc2ccccc12)C1CCN(C)CC1 (stereo not drawn)	75 nM	18.7 µM	74%	–	Mouse Food Intake, activity up to (Male C57BL/6J mice; 10 mg/kg i.p.): ≤ 24 h
COc1ccc(C(C)NC(=O)N(C)C2CCN(C)CC2(C)C)c2ccccc12 (stereo not drawn)	12 nM	0.01 µM	–	NSE (10 mg/kg)	–
COc1ccc(C(C)NC(=O)N(O)C2CCN(C)CC2)c2ccccc12 (stereo not drawn)	–	0.0021 µM	–	–	–
CC(NC(=O)N(Cc1ccccc1F)C1CCN(C)CC1(C)C)c1cccc(Cl)c1Cl (stereo not drawn)	7 nM	–	–	NSE (10 mg/kg)	–
COc1ccc(C(CO)NC(=O)N(C)C2CCN(C)CC2)c2ccccc12 (stereo not drawn)	66 nM	0.02 µM	47%	–	–
COc1cccc(CN(C(=O)NC(C)c2cccc(Cl)c2Cl)C2CCN(C)CC2(C)C)c1 (stereo not drawn)	5 nM	–	–	NSE (10 mg/kg)	–
CC(NC(=O)N(Cc1ccccc1Cl)C1CCN(C)CC1)c1cccc(Cl)c1Cl (stereo not drawn)	38 nM	–	95%	–	Mouse Food Intake, duration of activity (Male C57BL/6J mice; 3 mg/kg i.p., after 1 hr): no activity up to follow hrs; Mouse Food Intake, activity up to (Male C57BL/6J mice; 10 mg/kg i.p.): ≤ 24 h; Mouse Food Intake, activity up to (Male C57BL/6J mice; 30 mg/kg i.p.): ≤ 24 h; inhibition in vivo at 3 mg/kg (Male C57BL/6J mice; Mus musculus, ip, 3 mg/kg i.p., at 1 hr): 39%; inhibition in vivo at 30 mg/kg (Male C57BL/6J mice; Mus musculus, ip, 30 mg/kg i.p., at 2 hr): 70%
CC(NC(=O)N(C)C1CCN(C)CC1(C)C)c1cccc(Cl)c1Cl (stereo not drawn)	12 nM	–	26%	–	–
COc1ccc(C(C)NC(=O)N(OC)C2CCN(C)CC2)c(Cl)c1Cl (stereo not drawn)	4 nM	0.0082 µM	–	–	–
COc1ccc(C(C)NC(=O)N(C)C2CCN(C)CC2(C)C)c(Cl)c1Cl (stereo not drawn)	3 nM	0.01 µM	–	NSE (10 mg/kg)	–

The remaining molecules from weak to strong by IC50 (GHSR-1a [1]), led by results:

IC50 (GHSR-1a [1])	EC50 (GHSR-1a [2])	SMILES	inhibition in vivo at 10 mg/kg (Male C57BL/6J mice; [3])	Mouse Food Intake effect (Male C57BL/6J mice; 10 mg/kg i.p.)	also measured
910 nM	0.49 µM	CN1CCC(N(C)C(=O)NC(CO)c2cccc3ccccc23)CC1 (stereo not drawn)	–	–	inhibition in vivo at 10 mg/kg (Male C57BL/6J mice; Mus musculus, ip, 10 mg/kg i.p., 'at to 24 hrs'): 27%
320 nM	–	CCN(C(=O)NC(C)c1cccc2ccccc12)C1CCN(C)CC1 (stereo not drawn)	–	–	Mouse Food Intake, activity up to (Male C57BL/6J mice; 30 mg/kg i.p.): ≤ 24 h; inhibition in vivo at 30 mg/kg (Male C57BL/6J mice; [4]): 28%
120 nM	0.009 µM	CC(NC(=O)N(C)C1CCN(C)CC1)c1cccc(Cl)c1Cl (stereo not drawn)	–	NSE (10 mg/kg)	–
70 nM	–	CN1CCC(N(C)C(=O)NC(COCc2ccccc2)c2cccc(Cl)c2Cl)CC1 (stereo not drawn)	40%	–	Mouse Food Intake effect (Male C57BL/6J mice; 3 mg/kg i.p.): NSE; Mouse Food Intake, activity up to (Male C57BL/6J mice; 10 mg/kg i.p.): ≤ 4 h; Mouse Food Intake, activity up to (Male C57BL/6J mice; 30 mg/kg i.p.): ≤ 2 h; inhibition in vivo at 30 mg/kg (Male C57BL/6J mice; [4]): 50%
65 nM	–	CC(NC(=O)N(Cc1cccc(F)c1)C1CCN(C)CC1)c1cccc(Cl)c1Cl (stereo not drawn)	44%	–	–
40 nM	0.03 µM	COc1ccc(C(C)NC(=O)N(C)C2CCN(C)CC2)c2ccccc12 (stereo not drawn)	–	NSE	Mouse Food Intake, activity up to (Male C57BL/6J mice; 30 mg/kg i.p.): ≤ 24 h; Mouse Food Intake % increase food intake (Male C57BL/6J mice; 30 mg/kg i.p., at 1 hr): 70%
22 nM	16.8 µM	CC(NC(=O)N(Cc1ccccc1)C1CCN(C)CC1)c1cccc(Cl)c1Cl (stereo not drawn)	47%	–	–
21 nM	0.009 µM	C[C@@H](NC(=O)N(C)C1CCN(C)CC1(C)C)c1cccc2ccccc12 (stereo partly drawn)	–	–	Mouse Food Intake, activity up to (Male C57BL/6J mice; 30 mg/kg i.p.): ≤ 8 h; inhibition in vivo at 30 mg/kg (Male C57BL/6J mice; Mus musculus, ip, 30 mg/kg i.p., at 4 h): 47%
5 nM	0.006 µM	C[C@@H](NC(=O)N(Cc1ccccc1)C1CCN(C)CC1(C)C)c1cccc2ccccc12 (stereo partly drawn)	–	–	Mouse Food Intake effect (Male C57BL/6J mice; 30 mg/kg i.p.): NSE (30 mg/kg)
5 nM	–	COc1cccc(CN(C(=O)N[C@H](C)c2cccc(Cl)c2Cl)C2CCN(C)CC2C)c1 (stereo partly drawn)	–	NSE (10 mpk)	–
